The values that follow come from paper PMC7554145 (Journal of medicinal chemistry, 2020).

Data set [1] deals with MraY (Hydrogenivirga sp.) (Hydrogenivirga sp. 128-5-R1-1, UniProt Z9Y2G8N0L0). The data set is described as follows: MraY assay. The format is biochemical. The note with it: read-out: IC50 MraY (Hydrogenivirga sp.).
The target in another data set is AglH (M. jannaschii) (Methanocaldococcus jannaschii, UniProt Q58513). The data set is described as follows: AglH assay. The format is biochemical. The note with it: read-out: IC50 AglH (M. jannaschii).
A further data set concerns the target DPAGT1 (Human) (Homo sapiens, UniProt Q9H3H5). As to the kind of experiment: DPAGT1 assay. It counts as biochemical. As to conditions: read-out: IC50 DPAGT1 (Human).
The next data set relates to L1210. The data set is described as follows: MTT cytotoxicity assay, L1210. The format is cell-based, mouse. The note with it: read-out: IC50 L1210, 72h. For orientation: Tetrazolium assays rely on reduction of a dye to a coloured formazan, in cell work by metabolically active cells.
The test system of another data set is KB. As to the kind of experiment: MTT cytotoxicity assay, KB. It counts as cell-based, human. As to conditions: read-out: IC50 KB, 72h.
The subject of another data set is SiHa. The data set is described as follows: MTT cytotoxicity assay, SiHa. The format is cell-based, human. As to conditions: read-out: IC50 SiHa, 72h.
Another data set concerns HCT-116. As to the kind of experiment: MTT cytotoxicity assay, HCT-116. It counts as cell-based. The note with it: read-out: IC50 HCT-116, 72h.
For a further data set, the system named is DLD-1. As to the kind of experiment: MTT cytotoxicity assay, DLD-1. The format is cell-based. As to conditions: read-out: IC50 DLD-1, 72h.
The test system of a further data set is Capan-1. The data set is described as follows: MTT cytotoxicity assay, Capan-1. The format is cell-based, human. As to conditions: read-out: IC50 Capan-1, 72h.
A further data set deals with PANC-1. The data set is described as follows: MTT cytotoxicity assay, PANC-1. It counts as cell-based, human. As to conditions: read-out: IC50 PANC-1, 72h.
For another data set, the system named is AsPC-1. As to the kind of experiment: MTT cytotoxicity assay, AsPC-1. It counts as cell-based, human. As to conditions: read-out: IC50 AsPC-1, 72h.
The test system of data set [2] is PD002. The data set is described as follows: MTT cytotoxicity assay, PD002. The note with it: read-out: IC50 PD002; MTT assay, 72h. The format is cell-based, human.
The test system of a further data set is HPNE. As to the kind of experiment: MTT cytotoxicity assay, HPNE. It counts as cell-based. The note with it: read-out: IC50 HPNE; MTT assay, 72h; normal pancreatic ductal cell.
For the next data set, the system named is Vero. The data set is described as follows: MTT cytotoxicity assay, Vero. The format is cell-based, Cercopithecus aethiops. The note with it: read-out: IC50 Vero, 72h, normal kidney cell.
Data set [3] deals with PD002. The data set is described as follows: Scratch. The format is cell-based, human. The note with it: PD002, 24h, 0.2 μM; untreated 63%.
Another data set relates to DPAGT1 gene. The data set is described as follows: RT-qPCR of DPAGT1 gene expression in PD002. It counts as cell-based, human. As to conditions: 10 μM, 24h at 37 °C. (In general: Quantitative PCR measures a nucleic acid by following its amplification.)
For data set [4] the following is noted: cited from earlier work.
For the next data set, the system named is MraY/MurX. The note with it: read-out: IC50 MraY/MurX; ref [9],[10]; cited from earlier work.
A further data set has as its system WecA. The note with it: read-out: IC50 WecA; ref [9],[10]; cited from earlier work.
Another data set relates to DPAGT1. The note with it: read-out: IC50 DPAGT1; ref [9],[10]; cited from earlier work.
A further data set concerns the target WecA (E. coli) (Escherichia coli, UniProt P0AC78). As to the kind of experiment: WecA assay. The note with it: read-out: IC50 WecA (E. coli).

Like-named read-outs stand apart in the source and are kept apart here.

AglH (M. jannaschii), sequence (Q58513 whole entry): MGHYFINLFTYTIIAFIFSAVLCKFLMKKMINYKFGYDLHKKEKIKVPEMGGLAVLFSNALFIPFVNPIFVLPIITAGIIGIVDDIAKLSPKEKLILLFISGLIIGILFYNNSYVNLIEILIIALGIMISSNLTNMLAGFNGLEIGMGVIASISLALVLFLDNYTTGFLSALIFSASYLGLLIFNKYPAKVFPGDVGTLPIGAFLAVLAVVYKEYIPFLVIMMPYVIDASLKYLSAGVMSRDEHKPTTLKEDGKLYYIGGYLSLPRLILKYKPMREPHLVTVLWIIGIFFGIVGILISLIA
WecA (E. coli), sequence (P0AC78 whole entry): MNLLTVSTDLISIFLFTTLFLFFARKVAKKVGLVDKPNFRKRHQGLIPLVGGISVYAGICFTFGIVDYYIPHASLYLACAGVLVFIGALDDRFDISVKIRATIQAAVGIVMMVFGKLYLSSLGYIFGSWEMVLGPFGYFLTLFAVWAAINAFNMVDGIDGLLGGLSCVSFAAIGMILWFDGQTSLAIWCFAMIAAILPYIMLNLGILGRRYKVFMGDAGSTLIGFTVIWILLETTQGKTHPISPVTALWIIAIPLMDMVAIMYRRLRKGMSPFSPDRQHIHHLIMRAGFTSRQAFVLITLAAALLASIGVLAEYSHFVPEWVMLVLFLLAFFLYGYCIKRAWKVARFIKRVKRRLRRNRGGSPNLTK
DPAGT1 (Human), sequence (Q9H3H5 whole entry): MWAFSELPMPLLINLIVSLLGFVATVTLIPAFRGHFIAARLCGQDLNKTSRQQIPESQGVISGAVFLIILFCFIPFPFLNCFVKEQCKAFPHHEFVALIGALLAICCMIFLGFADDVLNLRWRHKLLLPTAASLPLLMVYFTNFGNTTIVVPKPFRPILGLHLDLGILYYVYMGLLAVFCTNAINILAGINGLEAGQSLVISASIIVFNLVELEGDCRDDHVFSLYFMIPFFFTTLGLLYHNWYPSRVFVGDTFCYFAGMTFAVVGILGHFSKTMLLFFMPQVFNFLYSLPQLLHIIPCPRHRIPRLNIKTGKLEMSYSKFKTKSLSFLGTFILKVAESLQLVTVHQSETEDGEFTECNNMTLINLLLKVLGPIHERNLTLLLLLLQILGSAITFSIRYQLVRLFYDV
MraY (Hydrogenivirga sp.), sequence (Z9Y2G8N0L0 7-365 limits assumed): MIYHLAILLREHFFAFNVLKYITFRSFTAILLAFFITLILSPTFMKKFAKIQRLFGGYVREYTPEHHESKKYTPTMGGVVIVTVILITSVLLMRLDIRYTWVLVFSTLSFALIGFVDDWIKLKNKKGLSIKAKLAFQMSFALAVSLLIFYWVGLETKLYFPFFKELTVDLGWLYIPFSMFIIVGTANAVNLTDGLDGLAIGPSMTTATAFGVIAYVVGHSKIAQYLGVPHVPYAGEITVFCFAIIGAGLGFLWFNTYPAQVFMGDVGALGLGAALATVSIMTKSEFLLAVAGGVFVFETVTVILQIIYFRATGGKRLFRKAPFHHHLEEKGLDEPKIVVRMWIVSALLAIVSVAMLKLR

For orientation: LD50 means the dose expected to kill half of the subjects tested. Take Tunicamycin: the IC50 in data set [1] worked out at 2900 nM; on AglH (M. jannaschii), 13200 nM; on DPAGT1 (Human) it was 1500 nM; in the data set with L1210, 1700 nM; with KB it was 2500 nM; in the data set with SiHa, 920 nM. Moreover, the IC50 in the data set with HCT-116 is 920 nM; in the data set with DLD-1, 1250 nM; in the data set with Capan-1 it was 1500 nM; in the data set with PANC-1, 1500 nM; in the data set with AsPC-1, 450 nM; in the data set on PD002 [2], 1500 nM. In addition, the IC50 with HPNE is 7500 nM; with Vero, 780 nM; in the data set with MraY/MurX, 2900 nM; in the data set with WecA it was 150 nM; with DPAGT1, 1500 nM; on WecA (E. coli) it was 150 nM. Moreover, in the data set on PD002 [3], the wound-healing rate was determined as 35%. Moreover, the PD002 killed in the data set on DPAGT1 gene came out at 100%. Further, the LD50 is listed as 2.0 mg/kg in data set [4] (mice, IP, ref [18],[19]) and 2.0 mg/kg in [4] (mouse, ref [10],[18]). Also, the LD100 in [4] (mice, IP, ref [18],[19]) is 3.5 mg/kg.
